Measurements reported in patent US10766879B2, “Pyrimidine derivatives as kinase inhibitors and their therapeutical applications” (NantBioScience, Inc., priority 2015, dated 2020).

How the values were obtained:
[1] = biological target: T1, c-Src kinase (Homo sapiens, UniProt P12931); assay: KinaseProfiler kinase inhibition assay, c-Src; assay type: biochemical; conditions: 1 μM compound; read-out: % Inhibition @1 μM cSrc
T1 construct: purchased Millipore (KinaseProfiler Service)

[2] = biological target: T2, Alk kinase (Homo sapiens, UniProt Q9UM73); assay: KinaseProfiler kinase inhibition assay, Alk; assay type: biochemical; conditions: 1 μM compound
T2 construct: purchased Millipore (KinaseProfiler Service)

[3] = tested on: KG1a; assay: CellTiterblue viability, 72 hr, KG1a; assay type: cell-based; conditions: Homo sapiens, KG-1a, KG1a cells
Protocol: (§1) A number of studies were performed to analyze the consequences of tyrosine kinase inhibition in cell lines. To do this, 1000 cells are seeded in 27 μl/well in 384-well microplates, which are then placed in a humidified CO2 incubator at 37° C. overnight. The next day, 3 μl/well of 10× concentrated drug is added and the plates are returned to the incubator for 72 hr. After 72 hr incubation, plates are removed and […] CellTiterblue (Promega) viability reagent is added. Plates are returned to the incubator for 3 hr, after which it is fluorescence measurements are read on the Victor X3 plate reader (Perkin Elmer). Data are analyzed using Excel (Microsoft), and GI50 values are determined using Prism (Graphpad).

[4] = tested on: AN3_CA; assay: CellTiterblue viability, 72 hr, AN3_CA; assay type: cell-based; conditions: Homo sapiens, AN3-CA, AN3_CA cells
Protocol: as §1

[5] = biological target: T3, Ret kinase (Homo sapiens, UniProt P07949); assay: KinaseProfiler kinase inhibition assay, Ret; assay type: biochemical; conditions: 1 μM compound
T3 construct: purchased Millipore (KinaseProfiler Service)
T3 sequence (P07949 29-1114): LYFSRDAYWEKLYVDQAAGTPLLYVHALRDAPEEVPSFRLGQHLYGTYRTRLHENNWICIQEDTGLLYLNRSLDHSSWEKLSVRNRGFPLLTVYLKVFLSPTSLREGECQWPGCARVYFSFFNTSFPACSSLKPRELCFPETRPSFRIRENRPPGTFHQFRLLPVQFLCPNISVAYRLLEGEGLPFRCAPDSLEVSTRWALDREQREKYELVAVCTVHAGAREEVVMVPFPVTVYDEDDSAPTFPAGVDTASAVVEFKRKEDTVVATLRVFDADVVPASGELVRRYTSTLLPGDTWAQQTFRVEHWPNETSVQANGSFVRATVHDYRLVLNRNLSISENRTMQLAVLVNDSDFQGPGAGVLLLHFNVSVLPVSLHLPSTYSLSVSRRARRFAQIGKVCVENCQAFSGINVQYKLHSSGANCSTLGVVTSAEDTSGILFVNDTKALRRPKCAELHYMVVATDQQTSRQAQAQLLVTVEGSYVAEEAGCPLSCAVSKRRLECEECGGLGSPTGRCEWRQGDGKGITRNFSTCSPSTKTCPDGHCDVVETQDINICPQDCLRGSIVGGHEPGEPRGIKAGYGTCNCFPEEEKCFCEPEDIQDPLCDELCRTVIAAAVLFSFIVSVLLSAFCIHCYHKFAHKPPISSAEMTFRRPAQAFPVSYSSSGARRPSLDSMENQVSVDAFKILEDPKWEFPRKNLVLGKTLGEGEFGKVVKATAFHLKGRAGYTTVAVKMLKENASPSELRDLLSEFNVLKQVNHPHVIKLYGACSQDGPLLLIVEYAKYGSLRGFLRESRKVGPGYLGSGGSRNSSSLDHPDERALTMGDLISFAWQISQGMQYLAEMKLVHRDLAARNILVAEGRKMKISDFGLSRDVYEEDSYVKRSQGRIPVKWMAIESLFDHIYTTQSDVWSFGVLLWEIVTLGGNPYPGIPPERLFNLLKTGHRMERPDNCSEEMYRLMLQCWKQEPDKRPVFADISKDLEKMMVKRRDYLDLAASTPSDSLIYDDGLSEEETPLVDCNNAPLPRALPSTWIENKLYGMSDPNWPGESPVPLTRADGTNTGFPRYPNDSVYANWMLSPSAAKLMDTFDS

[6] = tested on: MDA-MB134; assay: CellTiterblue viability, 72 hr, MDA-MB134; assay type: cell-based; conditions: MDA-MB134 cells
Protocol: as §1

[7] = biological target: T4, Tie2 (Homo sapiens, UniProt Q02763); assay: KinaseProfiler kinase inhibition assay, Tie2; assay type: biochemical; conditions: 1 μM compound
T4 construct: purchased Millipore (KinaseProfiler Service)
T4 sequence (Q02763 23-1124): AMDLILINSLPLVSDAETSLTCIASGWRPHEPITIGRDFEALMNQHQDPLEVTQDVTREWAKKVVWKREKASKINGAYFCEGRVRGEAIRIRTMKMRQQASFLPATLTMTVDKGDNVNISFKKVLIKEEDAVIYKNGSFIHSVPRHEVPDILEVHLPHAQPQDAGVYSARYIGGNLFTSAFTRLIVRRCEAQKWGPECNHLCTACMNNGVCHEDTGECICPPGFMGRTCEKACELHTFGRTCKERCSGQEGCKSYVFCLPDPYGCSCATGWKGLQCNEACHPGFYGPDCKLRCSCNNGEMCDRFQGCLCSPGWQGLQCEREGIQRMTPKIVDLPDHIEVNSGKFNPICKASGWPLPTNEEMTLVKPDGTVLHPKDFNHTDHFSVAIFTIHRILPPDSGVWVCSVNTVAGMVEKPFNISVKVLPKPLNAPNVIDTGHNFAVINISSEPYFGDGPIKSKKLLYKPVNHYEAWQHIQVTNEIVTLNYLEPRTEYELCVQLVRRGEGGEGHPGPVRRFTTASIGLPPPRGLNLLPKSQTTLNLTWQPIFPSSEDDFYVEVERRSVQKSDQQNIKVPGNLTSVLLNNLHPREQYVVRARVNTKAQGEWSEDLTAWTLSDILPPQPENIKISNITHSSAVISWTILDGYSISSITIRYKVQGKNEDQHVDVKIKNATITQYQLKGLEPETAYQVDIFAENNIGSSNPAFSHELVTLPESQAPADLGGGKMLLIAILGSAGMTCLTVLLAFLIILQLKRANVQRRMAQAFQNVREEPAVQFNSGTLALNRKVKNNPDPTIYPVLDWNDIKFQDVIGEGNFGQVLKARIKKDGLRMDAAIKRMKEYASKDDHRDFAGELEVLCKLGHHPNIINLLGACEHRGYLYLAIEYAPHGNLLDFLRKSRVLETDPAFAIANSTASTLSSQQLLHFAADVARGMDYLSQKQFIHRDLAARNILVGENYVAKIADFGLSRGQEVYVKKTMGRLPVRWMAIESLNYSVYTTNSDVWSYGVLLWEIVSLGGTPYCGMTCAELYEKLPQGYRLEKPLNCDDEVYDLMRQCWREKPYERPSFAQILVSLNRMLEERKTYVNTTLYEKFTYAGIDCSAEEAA

[8] = tested on: Kato III; assay: CellTiterblue viability, 72 hr, Kato III; assay type: cell-based; conditions: Homo sapiens, Kato III cells
Protocol: as §1

[9] = biological target: T5, KDR kinase (Homo sapiens, UniProt P35968); assay: KinaseProfiler kinase inhibition assay, KDR; assay type: biochemical; conditions: 1 μM compound
T5 construct: purchased Millipore (KinaseProfiler Service)

[10] = tested on: RT112; assay: CellTiterblue viability, 72 hr, RT112; assay type: cell-based; conditions: Homo sapiens, RT-112, RT112 cells
Protocol: as §1

[11] = biological target: T6, Abl kinase (Homo sapiens, UniProt P00519); assay: KinaseProfiler kinase inhibition assay, Abl; assay type: biochemical; conditions: 1 μM compound
T6 construct: purchased Millipore (KinaseProfiler Service)

[12] = biological target: T7, FGFR1 kinase (Homo sapiens, UniProt P11362); assay: KinaseProfiler kinase inhibition assay, FGFR1; assay type: biochemical; conditions: 1 μM compound
T7 construct: purchased Millipore (KinaseProfiler Service)
T7 sequence (P11362 22-822): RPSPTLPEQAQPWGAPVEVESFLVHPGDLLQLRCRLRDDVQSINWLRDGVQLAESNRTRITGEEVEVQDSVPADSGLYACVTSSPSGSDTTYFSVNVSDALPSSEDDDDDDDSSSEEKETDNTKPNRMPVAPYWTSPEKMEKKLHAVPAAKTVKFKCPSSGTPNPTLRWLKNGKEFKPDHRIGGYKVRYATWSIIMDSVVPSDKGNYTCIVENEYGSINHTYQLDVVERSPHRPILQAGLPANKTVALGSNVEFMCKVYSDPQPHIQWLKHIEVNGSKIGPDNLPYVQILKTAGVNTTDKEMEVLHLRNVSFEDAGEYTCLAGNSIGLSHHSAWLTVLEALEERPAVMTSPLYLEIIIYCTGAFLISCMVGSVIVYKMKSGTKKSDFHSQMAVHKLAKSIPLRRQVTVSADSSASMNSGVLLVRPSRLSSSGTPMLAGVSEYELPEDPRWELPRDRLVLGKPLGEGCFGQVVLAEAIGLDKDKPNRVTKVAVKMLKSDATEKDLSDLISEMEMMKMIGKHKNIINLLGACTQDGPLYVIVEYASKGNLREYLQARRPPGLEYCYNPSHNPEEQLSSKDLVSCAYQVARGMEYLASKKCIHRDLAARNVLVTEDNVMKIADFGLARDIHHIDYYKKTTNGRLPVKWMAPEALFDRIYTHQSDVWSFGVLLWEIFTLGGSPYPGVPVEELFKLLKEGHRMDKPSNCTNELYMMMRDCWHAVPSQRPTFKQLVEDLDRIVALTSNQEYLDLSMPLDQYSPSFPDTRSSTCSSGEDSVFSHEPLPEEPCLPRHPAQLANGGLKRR

[13] = biological target: T8, phospho-FGFR2 (Homo sapiens, UniProt P21802); assay: phospho-FGFR ELISA on Kato III cells; assay type: cell-based; conditions: read-out: EC50 (nM) P-FGFR2, Kato III cells
T8 construct: endogenous in cells; host or cells: Kato III cells
T8 sequence (P21802 22-766 isoform P21802-8 limits assumed): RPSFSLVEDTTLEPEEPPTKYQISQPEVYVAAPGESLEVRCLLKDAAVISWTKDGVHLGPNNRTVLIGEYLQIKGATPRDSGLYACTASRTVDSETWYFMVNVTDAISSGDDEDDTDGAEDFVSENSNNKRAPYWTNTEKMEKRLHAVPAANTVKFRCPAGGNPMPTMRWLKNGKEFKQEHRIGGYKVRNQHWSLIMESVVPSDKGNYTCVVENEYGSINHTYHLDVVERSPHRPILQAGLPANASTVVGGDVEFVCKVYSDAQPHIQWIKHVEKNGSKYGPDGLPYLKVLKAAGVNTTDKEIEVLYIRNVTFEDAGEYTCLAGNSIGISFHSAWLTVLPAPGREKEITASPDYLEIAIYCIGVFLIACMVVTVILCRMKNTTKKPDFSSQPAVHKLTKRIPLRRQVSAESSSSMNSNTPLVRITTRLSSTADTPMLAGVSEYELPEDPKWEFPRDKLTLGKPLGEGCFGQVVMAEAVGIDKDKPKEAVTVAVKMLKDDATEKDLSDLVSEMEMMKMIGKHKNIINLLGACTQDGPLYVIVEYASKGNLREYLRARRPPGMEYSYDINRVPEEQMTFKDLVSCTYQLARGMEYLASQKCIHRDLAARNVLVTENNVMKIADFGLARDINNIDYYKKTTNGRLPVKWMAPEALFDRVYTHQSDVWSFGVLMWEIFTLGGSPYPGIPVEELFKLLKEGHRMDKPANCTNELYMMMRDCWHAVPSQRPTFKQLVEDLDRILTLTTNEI
Protocol: For the phospho-FGFR, the following assay Protocol was used. 25,000 cells are seeded in 90 μl/well in 96-well microplates, which are then placed in a humidified CO2 incubator at 37° C. overnight. 96-well ELISA plates (Mesoscale Discovery) are coated with capture antibody (R&D Systems Duo-Set) at 4 μg/ml, 30 μl/well. The next day, 10 μl/well of 10× concentrated drug is added and the plates are returned to the incubator for […]. ELISA plates are washed using an automated plate washer (BioTek Instruments). After 30 min, cells are inverted and gently tapped to remove excess medium, and immediately placed on ice. 30 μl mPer cell lysis reagent (Thermo Scientific) with protease and phosphatase inhibitors is added/well. After 15 min on ice, lysates are mixed and 30 μl transferred to the ELISA plate. Plates are incubated for 2 hr, washed, and 30 μl/well detection antibody is added. After 1 hr, plates are washed and 30 μl “SulfoTag” (MesoScale Discovery) detection reagent is added. After 1 hr, plates are washed and 150 μl/well read solution is added. Electrochemiluminescence is determined on the Mesoscale Discovery Sector Imager 2000. Data are analyzed using Excel (Microsoft), and EC50 values are determined using Prism (Graphpad).

T1 sequence (P12931 whole entry): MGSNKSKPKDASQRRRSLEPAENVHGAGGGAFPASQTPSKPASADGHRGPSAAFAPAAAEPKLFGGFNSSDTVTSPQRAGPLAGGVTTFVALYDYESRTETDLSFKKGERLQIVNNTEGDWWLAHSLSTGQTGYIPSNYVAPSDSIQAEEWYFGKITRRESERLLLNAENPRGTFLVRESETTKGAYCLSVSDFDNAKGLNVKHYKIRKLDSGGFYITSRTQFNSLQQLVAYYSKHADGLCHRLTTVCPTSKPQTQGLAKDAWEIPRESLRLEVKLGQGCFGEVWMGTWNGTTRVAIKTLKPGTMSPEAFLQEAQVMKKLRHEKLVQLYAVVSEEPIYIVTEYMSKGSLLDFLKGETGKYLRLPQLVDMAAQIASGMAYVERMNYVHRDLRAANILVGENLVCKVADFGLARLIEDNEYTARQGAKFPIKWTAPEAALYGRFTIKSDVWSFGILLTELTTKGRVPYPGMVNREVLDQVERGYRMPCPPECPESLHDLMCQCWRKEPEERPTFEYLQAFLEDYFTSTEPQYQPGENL

Row | Structure (SMILES) | inhibition at 1 µM [1] [%] | inhibition at 1 µM [2] [%] | GI50 [3] [nM] | GI50 [4] [nM] | inhibition at 1 µM [5] [%] | GI50 [6] [nM] | inhibition at 1 µM [7] [%] | GI50 [8] [nM] | inhibition at 1 µM [9] [%] | GI50 [10] [nM] | inhibition at 1 µM [11] [%] | inhibition at 1 µM [12] [%] | EC50 [13] [nM]
1 | CCN1CCN(c2ccc(Nc3ncnc(Oc4ccc5c(cc(C)n5C)c4F)c3C#N)cc2)CC1 [Compound 65] | 13 | -28 | > 500 | > 500 | -19 | 461 | 37 | > 500 | 8 | > 500 | -1 | 98 | 
2 | CCN1CCN(c2ccc(Nc3ncnc(Oc4ccc5[nH]c(C)cc5c4F)c3C(N)=O)cc2)CC1 [Compound 68] | 85 | 46 | 32 | 79 | 97 | 111 | 94 | 23 | 96 | 11 | 67 | 100 | 
3 | Cc1cc2c(F)c(Oc3cc(Nc4ccc(N5CCN(C)CC5)cc4)ncn3)ccc2[nH]1 [Example 2] | 47 | 3 | > 100 | 490 | 75 |  | 58 | 165 | 97 | > 100 | 45 | 102 | 88
4 | CCN1CCN(c2ccc(Nc3cc(Oc4ccc5[nH]c(C)cc5c4F)ncn3)cc2)CC1 [Example 3] | 46 | -2 | > 100 | > 500 | 75 |  | 61 |  | 97 | > 100 | 47 | 102 | 93
5 | COc1ccc(-c2cc(Nc3cc(Oc4ccc5[nH]c(C)cc5c4F)ncn3)n[nH]2)cc1OC [Example 5] | 65 | -10 | > 100 | 211 | 77 |  | 45 | > 500 | 97 | > 100 | 63 | 93 | > 100
6 | Cc1cc2c(F)c(Oc3cc(Nc4cc(-c5ccccn5)[nH]n4)ncn3)ccc2[nH]1 [Example 6] | 47 | 6 | > 100 | 573 | 78 |  | 59 | > 500 | 97 | > 100 | 62 | 95 | > 100
7 | Cc1cc2c(F)c(Oc3cc(Nc4cc(C5CC5)[nH]n4)ncn3)ccc2[nH]1 [Example 16] | 54 | 2 | > 100 | > 500 | 79 |  | 75 |  | 90 | > 100 | 64 | 92 | > 100
8 | C/C=C/c1cc(Nc2cc(Oc3ccc4[nH]c(C)cc4c3F)ncn2)n[nH]1 [Example 17] | 21 | 2 | > 100 | > 500 | 73 |  | 37 |  | 90 | > 100 | 42 | 95 | > 100
9 | Cc1cc2c(F)c(Oc3cc(Nc4cc(-c5ccco5)[nH]n4)ncn3)ccc2[nH]1 [Example 20] | 24 | 3 | > 100 | > 500 | 78 |  | 47 |  | 88 | > 100 | 36 | 92 | > 100
